From patent publication US20240401094A1, “SOLID FORM OF (-)-AMBROX FORMED BY A BIOCONVERSION OF HOMOFARNESOL IN THE PRESENCE OF A BIOCATALYST” (Givaudan SA, priority 2016, published 2024)

Experiment: Sensory analysis (odour / GC-detection threshold and odour character)
Conditions: for odour description: result in words
From the text: Purpose: to Carry Out a Sensory Analysis of (−)-Ambrox and the Compounds (II), (III) and (IV) Formed in the Crude Material and in the Crystallised Material.

In the case of `CC1(C)CCC[C@]2(C)[C@H]3CCO[C@]3(C)CC[C@@H]12` [(−)-Ambrox], the “Odour Threshold” value (sensory analysis) is reported as 0.2 ng/L.
With `C/C1=C/CCO[C@@]2(C)CCCC(C)(C)[C@@H]2CC1` [Compound (II)] the detection threshold (as stated in the description) was over 500 ng/L, the GC-detection threshold (sensory analysis) was over 500 ng and the odour description (sensory analysis) was ““odorless””. For the same molecule, the odour description (sensory analysis, listed as II) was “weaker odour” and the odour description (sensory analysis, listed as compound of formula (II)) was “practically odourless”.
In the case of `CC1(C)CCC[C@@]2(C)[C@H]1CC[C@@]1(C)OCC[C@@H]21` [Compound (III), epi-Ambrox], the “GC-threshold relative to (−)-Ambrox (times higher)” value (compared with (−)-Ambrox) is reported as “about 10 ×”, the “odor weaker than (−)-Ambrox” value (compared with (−)-Ambrox) is reported as “about 10 fold” and the GC-detection threshold (sensory analysis) is reported as “circa 2 ng”. The odour description (sensory analysis, listed as Compound III) was “essentially odorless” and the odour description (sensory analysis, listed as III) was “weaker odour”.
With `CC1(C)CCC[C@@]2(C)[C@H]1CC[C@]1(C)OCC[C@@H]21` [Compound (IV)] the GC-detection threshold (sensory analysis) was 5 to 10 ng, the odour description (sensory analysis) was “weak, IsoE, woody” and the odour description (sensory analysis, listed as IV) was “weaker odour”.
